The values below come from patent US7538241B2, “Hsp90 family protein inhibitors” (Kyowa Hakko Kogyo Co., Ltd., priority 2003, dated 2009).

Each structure is given as a SMILES string.

For test [1], the system named is human chronic myelocytic leukemia-derived K562 cells. Put plainly: Cell growth inhibition test with K562 cells (WST-1). Format: cell-based. The conditions noted are these: 72 hours, read-out: 50% growth inhibition concentration (GI50). Here is the method:
In a 96-well plate (Nunc), human chronic myelocytic leukemia-derived K562 cells were sown in an amount of 1500 cells/well, and pre-incubated in 10% FCS-containing Rosewell Park Memorial Institute's Medium (RPMI) 1640 (Nissui) (incubation medium) in a 5% carbon dioxide incubator at 37° C. for 5 hours. Next, a DMSO solution of a test compound controlled at 10 mmol/L was stepwise diluted with the incubation medium, and added to each well in a total amount of 100 μL/well, and further incubated in the 5% carbon dioxide incubator at 37° C. for 72 hours. After the incubation, WST-1-labeled mixture (Rosh Diagnostic) diluted 2-fold with the incubation medium was added thereto in an amount of 20 μL/well, and incubated in the 5% carbon dioxide incubator at 37° C. for 2 hours. Using a microplate spectrophotometer (Biorad's Model 550), the absorbance at 450 nm and 655 nm of each well was measured. The cell growth inhibition activity of the test compound was indicated by the 50% growth inhibition concentration (GI50) thereof, like in Test Example 2.

The subject of test [2] is human mammary cancer-derived KPL-4 cells. Put plainly: Cell growth inhibition test with KPL-4 cells (WST-1). Type of test: cell-based. Particulars: KPL4, 72 hours, read-out: 50% growth inhibition concentration (GI50). In short, it runs like this: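 Growth inhibition from WST-1 absorbance difference (450 minus 655 nm) after 1 h, relative to untreated control as 100%, giving GI50. KPL-4 cells had 24 h pre-culture in DMEM/10% FCS before 72 h compound exposure at 37 °C under 5% CO2.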
For orientation: Tetrazolium assays rely on reduction of a dye to a coloured formazan, in cell work by metabolically active cells.

Turning to `CCc1c(O)cc(O)c(-c2ccccc2)c1CCCOCCO` [Compound 162, 6-Ethyl-5-[3-(2-hydroxyethoxy)propyl]-4-phenylbenzene-1,3-diol], the GI50 in test [1] and in test [2] was not above 50 µM each time.
For `CCc1c(O)cc(O)c(-c2cccc(OC)c2)c1CCO` [Compound 143, 6-Ethyl-5-(2-hydroxyethyl)-4-(3-methoxyphenyl)benzene-1,3-diol], the GI50 in test [1] and in test [2] was not above 50 µM in each case.
Regarding `CCc1c(O)cc(O)c(-c2ccccc2)c1CCOC` [Compound 83, 6-Ethyl-5-(2-methoxyethyl)-4-phenylbenzene-1,3-diol], the GI50 in test [1] and in test [2] was not above 50 µM in each case.
For the compound `CCc1c(O)cc(O)c(-c2cccc(O)c2)c1CCOC` [Compound 171, 6-Ethyl-4-(3-hydroxyphenyl)-5-(2-methoxyethyl)benzene-1,3-diol], the GI50 in test [1] and in test [2] was not above 50 µM each time.
As to `CCc1c(O)cc(O)c(-c2ccccc2)c1CCOCC(=O)NC` [Compound 156, 2-[2-(2-Ethyl-3,5-dihydroxy-6-phenylphenyl)ethoxy]-N-methylacetamide], the GI50 in test [1] and in test [2] was not above 50 µM each time.
Turning to `CCc1c(O)cc(O)c(-c2cccc(C)c2)c1CCOCCOC` [Compound 149, 6-Ethyl-5-[2-(2-methoxyethoxy)ethyl]-4-(3-methylphenyl)benzene-1,3-diol], the GI50 in test [1] and in test [2] was not above 50 µM in each case.
As for `COCCN(C)C(=O)Cc1c(Br)c(O)cc(O)c1-c1ccccc1` [Compound 37, 2-(2-Bromo-3,5-dihydroxy-6-phenylphenyl)-N-(2-methoxyethyl)-N-methylacetamide], the GI50 in test [1] and in test [2] was not above 50 µM each time.
In the case of `CCc1c(O)cc(O)c(-c2ccccc2)c1CCOCCO` [Compound 161, 6-Ethyl-5-[2-(2-hydroxyethoxy)ethyl]-4-phenylbenzene-1,3-diol], the GI50 in test [1] and in test [2] was not above 50 µM each time.
In the case of `CCc1c(O)cc(O)c(-c2cccc(OC)c2)c1CCOCC(O)CO` (centres unmarked) [Compound 189, 5-[2-(2,3-Dihydroxypropoxy)ethyl]-6-ethyl-4-(3-methoxyphenyl)benzene-1,3-diol], the GI50 in test [1] and in test [2] was not above 50 µM in each case.
Consider `COC(=O)Cc1c(C(C)=O)c(O)cc(O)c1-c1ccccc1` [Compound 69, Methyl 2-acetyl-3,5-dihydroxy-6-phenylphenylacetate], for which the GI50 in test [1] and in test [2] was not above 50 µM each time.
Consider `CCc1c(O)cc(O)c(-c2ccccc2)c1CCCOCC(=O)NCCO` [Compound 167, 2-[3-(2-Ethyl-3,5-dihydroxy-6-phenylphenyl)propoxy]-N-(2-hydroxyethyl)acetamide], for which the GI50 in test [1] and in test [2] was not above 50 µM throughout.
In the case of `CCc1c(O)cc(O)c(-c2ccccc2)c1CCCOCCOC` [Compound 146, 6-Ethyl-5-[3-(2-methoxyethoxy)propyl]-4-phenylbenzene-1,3-diol], the GI50 in test [1] and in test [2] was not above 50 µM in each case.
Turning to `CCc1c(O)cc(O)c(-c2cccc(O)c2)c1CCOCC(O)CO` (centres unmarked) [Compound 173, 5-[2-(2,3-dihydroxypropoxy)ethyl]-6-ethyl-4-(3-hydroxyphenyl)benzene-1,3-diol], the GI50 in test [1] and in test [2] was not above 50 µM throughout.
For `COC(=O)Cc1cc(O)cc(O)c1-c1ccc2ccccc2c1` [Compound 270, Methyl-3,5-dihydroxy-2-(2-naphthyl)phenylacetate], the GI50 in test [1] and in test [2] was not above 50 µM each time.
As to `CCc1c(O)cc(O)c(-c2ccccc2)c1CCCOC(CO)CO` [Compound 163, 5-{3-[Bis(hydroxymethyl)methoxy]propyl}-6-ethyl-4-phenylbenzene-1,3-diol], the GI50 in test [1] and in test [2] was not above 50 µM each time.
For `CCc1c(O)cc(O)c(-c2ccccc2)c1CCCOCC(O)CO` (centres unmarked) [Compound 148, 5-[3-(2,3-Dihydroxypropoxy)propyl]-6-ethyl-4-phenylbenzene-1,3-diol], the GI50 in test [1] and in test [2] was not above 50 µM throughout.
In the case of `COCCOCCc1c(C(C)=O)c(O)cc(O)c1-c1cccc(OC)c1` [Compound 137, 1-{2,4-dihydroxy-6-[2-(2-methoxyethoxy)ethyl]-5-(3-methoxyphenyl)phenyl}ethanone], the GI50 in test [1] and in test [2] was not above 50 µM in each case.
`CCc1c(O)cc(O)c(-c2cccc(C)c2)c1CCOC` [Compound 130, 6-Ethyl-5-(2-methoxyethyl)-4-(3-methylphenyl)benzene-1,3-diol]: the GI50 in test [1] and in test [2] was not above 50 µM in each case.
On to `CCc1c(O)cc(O)c(-c2ccccc2)c1CCCO` [Compound 123, 6-Ethyl-5-(3-hydroxypropyl)-4-phenylbenzene-1,3-diol], for which the GI50 in test [1] and in test [2] was not above 50 µM each time.
`OCCCc1c(Br)c(O)cc(O)c1-c1ccccc1` [Compound 104, 6-Bromo-5-(3-hydroxypropyl)-4-phenylbenzene-1,3-diol]: the GI50 in test [1] and in test [2] was not above 50 µM in each case.
On to `CCc1c(O)cc(O)c(-c2cccc(O)c2)c1CCO` [Compound 172, 6-Ethyl-5-(2-hydroxyethyl)-4-(3-hydroxyphenyl)benzene-1,3-diol], for which the GI50 in test [1] and in test [2] was not above 50 µM each time.
As for `C=CCOCCCc1c(CC)c(O)cc(O)c1-c1ccccc1` [Compound 145, 5-(3-Allyloxypropyl)-6-ethyl-4-phenylbenzene-1,3-diol], the GI50 in test [1] and in test [2] was not above 50 µM throughout.
Regarding `COCCOCCc1c(C(C)=O)c(O)cc(O)c1-c1ccccc1` [Compound 136, 1-[2,4-Dihydroxy-6-[2-(2-methoxyethoxy)ethyl]-5-phenylphenyl)ethanone], the GI50 in test [1] and in test [2] was not above 50 µM throughout.
`CCc1c(O)cc(O)c(-c2cccc(C(=O)NC)c2)c1CC1O[C@H](CO)[C@@H](CO)O1` [Compound 294, 5-{[(4R,5R)-4,5-Bis(hydroxymethyl)-1,3-dioxolan-2-yl]methyl}-6-ethyl-4-[3-(methylcarbamoyl)phenyl]benzene-1,3-diol]: in test [1], the GI50 was not above 50 µM.
Same read-out and setting: the result for `COC(=O)Cc1cc(O)cc(O)c1-c1ccc(CCC(C)=O)o1` [Compound 261, Methyl 3,5-dihydroxy-2-[5-(3-oxobutyl)furan-2-yl]phenylacetate] reads not above 50 µM.
Take `COCCOCCc1c(C(C)=O)c(O)cc(O)c1-c1cccc(O)c1` [Compound 165, 1-{2,4-Dihydroxy-5-(3-hydroxyphenyl)-6-[2-(2-methoxyethoxy)ethyl]phenyl}ethanone]: the GI50 in test [1] and in test [2] was not above 50 µM each time.
In the case of `CCc1c(O)cc(O)c(-c2cccc(O)c2)c1CCOCC1CO1` (centres unmarked) [Compound 219, 6-Ethyl-4-(3-hydroxyphenyl)-5-[2-(oxiran-2-ylmethoxy)ethyl]benzene-1,3-diol], the GI50 in test [1] was not above 50 µM.
The same measure, in the same setting: for `CCc1c(O)cc(O)c(-c2cccc(C(=O)N(C)C)c2)c1CC1O[C@H](CO)[C@@H](CO)O1` [Compound 292, 5-{[(4R,5R)-4,5-bis(hydroxymethyl)-1,3-dioxolan-2-yl]methyl}-4-[3-(dimethylcarbamoyl)phenyl]-6-ethylbenzene-1,3-diol] the value was not above 50 µM; for `CCc1c(O)cc(O)c(-c2ccc(F)c(Cl)c2)c1CC1O[C@@H](CO)[C@H](CO)O1` [Compound 301, 5-{[(4S,5S)-4,5-Bis(hydroxymethyl)-1,3-dioxolan-2-yl]methyl}-4-(3-chloro-4-fluorophenyl)-6-ethylbenzene-1,3-diol], not above 50 µM; for `OC[C@@H]1OC(Cc2c(Cl)c(O)cc(O)c2-c2ccccc2)O[C@H]1CO` [Compound 285, 5-{[(4S,5S)-4,5-bis(hydroxymethyl)-1,3-dioxolan-2-yl]methyl}-6-chloro-4-phenylbenzene-1,3-diol], not above 50 µM.
The same measure, in the same setting: for `CCc1c(O)cc(O)c(-c2ccc(F)c(C)c2)c1CCOCCO` [Compound 314, 6-Ethyl-4-(4-fluoro-3-methylphenyl)-5-[2-(2-hydroxyethoxy)ethyl]benzene-1,3-diol] the value was not above 50 µM.
For the compound `CCc1c(O)cc(O)c(-c2ccccc2)c1CCOCCCO` [Compound 175, 6-Ethyl-5-[2-(3-hydroxypropoxy)ethyl]-4-phenylbenzene-1,3-diol], the GI50 in test [1] and in test [2] was not above 50 µM each time.
As to `CCc1c(O)cc(O)c(-c2cccc(NS(C)(=O)=O)c2)c1CCOCC(O)CO` (centres unmarked) [Compound 202, 6-Ethyl-5-[2-(2,3-dihydroxypropoxy)ethyl]-4-{3-[N-(methylsulfonyl)amino]phenyl}benzene-1,3-diol], the GI50 in test [1] is not above 50 µM.
Same read-out and setting: for `CCc1c(O)cc(O)c(-c2cccc(C(N)=O)c2)c1CC1O[C@@H](CO)[C@H](CO)O1` [Compound 288, 5-{[(4S,5S)-4,5-Bis(hydroxymethyl)-1,3-dioxolan-2-yl]methyl}-6-ethyl-4-(3-carbamoylphenyl)benzene-1,3-diol] the value was not above 50 µM.
